The values below come from patent publication US20120094964A1, “SULFAMOYL BENZOIC ACID DERIVATIVES AS TRPM8 ANTAGONISTS” (priority 2009, published 2012).

A value given as a limit tells only on which side of the number the result lay.

T1 sequence (Q7Z2W7 whole entry): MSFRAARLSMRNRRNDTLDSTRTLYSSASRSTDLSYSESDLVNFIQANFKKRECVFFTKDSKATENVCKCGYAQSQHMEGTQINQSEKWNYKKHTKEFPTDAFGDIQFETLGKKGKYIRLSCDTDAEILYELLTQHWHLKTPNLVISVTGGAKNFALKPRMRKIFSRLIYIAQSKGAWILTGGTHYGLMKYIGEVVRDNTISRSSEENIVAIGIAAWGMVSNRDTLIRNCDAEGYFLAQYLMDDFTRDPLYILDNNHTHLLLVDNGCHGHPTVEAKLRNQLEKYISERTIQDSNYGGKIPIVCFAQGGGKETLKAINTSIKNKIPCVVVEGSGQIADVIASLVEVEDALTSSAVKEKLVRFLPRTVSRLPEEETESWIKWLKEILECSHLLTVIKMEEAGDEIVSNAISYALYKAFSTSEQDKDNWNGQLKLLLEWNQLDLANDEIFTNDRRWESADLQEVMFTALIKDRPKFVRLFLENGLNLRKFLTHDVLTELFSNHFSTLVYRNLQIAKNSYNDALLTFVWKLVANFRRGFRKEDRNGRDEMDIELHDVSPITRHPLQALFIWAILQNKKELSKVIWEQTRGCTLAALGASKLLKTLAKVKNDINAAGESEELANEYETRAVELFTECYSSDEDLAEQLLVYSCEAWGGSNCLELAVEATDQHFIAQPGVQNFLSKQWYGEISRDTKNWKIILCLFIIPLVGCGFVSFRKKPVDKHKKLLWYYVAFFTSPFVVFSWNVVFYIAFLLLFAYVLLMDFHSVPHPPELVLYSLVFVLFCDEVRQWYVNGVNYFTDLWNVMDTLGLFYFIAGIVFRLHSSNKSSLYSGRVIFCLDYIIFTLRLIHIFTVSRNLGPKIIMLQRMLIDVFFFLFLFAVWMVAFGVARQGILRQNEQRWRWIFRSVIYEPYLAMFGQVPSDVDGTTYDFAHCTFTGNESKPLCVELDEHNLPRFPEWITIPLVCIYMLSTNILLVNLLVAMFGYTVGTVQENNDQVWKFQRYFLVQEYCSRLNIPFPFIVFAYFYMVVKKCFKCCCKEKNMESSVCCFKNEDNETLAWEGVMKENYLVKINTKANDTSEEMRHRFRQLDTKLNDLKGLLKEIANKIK

The test concerns the target T1, human TRPM8 (Homo sapiens, UniProt Q7Z2W7).
T1 construct: expressed in transfected cells
As to the kind of experiment: In Vitro human TRPM8 Functional Assay (intracellular Ca2+, Fluo4, FDSS, menthol activation). The class given is cell-based. As to conditions: HEK293 cells stably expressing human TRPM8; activation with L-(-)-Menthol; 11-point dose-response. An outline of the steps:
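Fluo4-loaded HEK293 cells stably expressing TRPM8 were preincubated with compound for 5 min at room temperature, then stimulated with L-menthol (20 μl of 90 μM stock) while fluorescence was read. IC50 values come from 11-point curves fitted to the mean of duplicate wells.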
As a reminder, the IC50 is the point on the concentration scale where inhibition reaches its midpoint. Low values mean higher potency, high ones lower potency. The compound `Cc1cc(Cl)cnc1N(Cc1ccccc1)S(=O)(=O)c1ccc(C(=O)O)cc1` [Example 38, 4-(N-Benzyl-N-(5-chloro-3-methylpyridin-2-yl)sulfamoyl)benzoic acid] displayed an IC50 of less than 1000 nM.

Compound `COc1ccc(OC)c(C(C)N(c2cccc(Cl)c2)S(=O)(=O)c2ccc(C)cc2)c1` (centres unmarked) [Example 86, N-(3-Chlorophenyl)-N-(1-(2,5-dimethoxyphenyl)ethyl)-4-methylbenzene-sulfonamide] displayed an IC50 of 1000 to 10000 nM.

The compound `O=C(O)c1ccc(S(=O)(=O)N(Cc2ccccc2)c2ncc(C(F)(F)F)cc2Cl)c(F)c1` [Example 190, 4-(N-Benzyl-N-(3-chloro-5-(trifluoromethyl)pyridin-2-yl)sulfamoyl)-3-fluorobenzoic acid] gave a 50% inhibitory concentration (IC50) of less than 1000 nM.

The compound `O=C(O)c1ccc(S(=O)(=O)N(Cc2ccc(-n3cccn3)cc2)c2ncc(C(F)(F)F)cc2Cl)cc1` [Example 170, 4-(N-(4-(1H-Pyrazol-1-yl)benzyl)-N-(3-chloro-5-(trifluoromethyl)pyridin-2-yl)sulfamoyl)benzoic acid] had a concentration for half-maximal inhibition (IC50) of less than 1000 nM.

As for `O=C(O)c1ccc(S(=O)(=O)N(Cc2ccc(Cl)cc2)c2ncc(C(F)(F)F)cc2Cl)cc1` [Example 32, 4-(N-(3-Chloro-5-(trifluoromethyl)pyridin-2-yl)-N-(4-chlorobenzyl)sulfamoyl)benzoic acid], the IC50 is less than 1000 nM.

`O=C(O)c1ccc(S(=O)(=O)N(c2ncc(C(F)(F)F)cc2Cl)C2(c3ccccc3)CC2)cc1` [Example 193, 4-(N-(3-Chloro-5-(trifluoromethyl)pyridin-2-yl)-N-(1-phenylcyclopropyl)sulfamoyl)benzoic acid] gave an IC50 of less than 1000 nM.

For `O=C(O)c1ccc(S(=O)(=O)N(Cc2ccc(-c3cccnc3)cc2)c2ncc(C(F)(F)F)cc2Cl)cc1` [Example 154, 4-(N-(3-Chloro-5-(trifluoromethyl)pyridin-2-yl)-N-(4-(pyridin-3-yl)benzyl)sulfamoyl)benzoic acid], the concentration for half-maximal inhibition (IC50) was less than 1000 nM.

As to `O=C(O)c1cccc(S(=O)(=O)N(Cc2ccccc2)c2cccc(C(F)(F)F)c2)c1` [Example 111, 3-(N-Benzyl-N-(3-(trifluoromethyl)phenyl)sulfamoyl)benzoic acid], the concentration for half-maximal inhibition (IC50) lay within 1000 to 10000 nM.

Regarding `Cc1cccnc1N(Cc1ccccc1)S(=O)(=O)c1ccc(C(=O)O)cc1` [Example 34, 4-(N-Benzyl-N-(3-methylpyridin-2-yl)sulfamoyl)benzoic acid], the 50% inhibitory concentration (IC50) is 1000 to 10000 nM.

Compound `COc1cccc(N(C(C)c2ccccc2)S(=O)(=O)c2ccc(F)c(Cl)c2)c1` (centres unmarked) [Example 94, 3-Chloro-4-fluoro-N-(3-methoxyphenyl)-N-(1-phenylethyl)benzene-sulfonamide] returned a 50% inhibitory concentration (IC50) of 1000 to 10000 nM.

With `C[Si](C)(C)c1ccc(CN(c2ncc(C(F)(F)F)cc2Cl)S(=O)(=O)c2ccc(C(=O)O)cc2)cc1` [Example 140, 4-(N-(3-Chloro-5-(trifluoromethyl)pyridin-2-yl)-N-(4-(trimethylsilyl)benzyl)sulfamoyl)benzoic acid], the IC50 was less than 1000 nM.

For `COc1ccccc1C(C)N(c1cccc(F)c1)S(=O)(=O)c1ccc(C)c(Cl)c1` (centres unmarked) [Example 105, 3-Chloro-N-(3-fluorophenyl)-N-(1-(2-methoxyphenyl)ethyl)-4-methylbenzene-sulfonamide], the IC50 was 1000 to 10000 nM.

Turning to `COc1ccc(OC)c(C(C)N(c2ccc(F)cc2)S(=O)(=O)c2ccc(F)cc2C)c1` (centres unmarked) [Example 135, N-(1-(2,5-Dimethoxyphenyl)ethyl)-4-fluoro-N-(4-fluoro-phenyl)-2-methylbenzene-sulfonamide], the concentration for half-maximal inhibition (IC50) fell in the range of 1000 to 10000 nM.

In the case of `Cc1cccc(N(C(C)c2ccccc2F)S(=O)(=O)c2ccccc2F)c1` (centres unmarked) [Example 91, 2-Fluoro-N-(1-(2-fluoro-phenyl)ethyl)-N-m-tolyl benzenesulfonamide], the IC50 is 1000 to 10000 nM.

Turning to `O=C(O)c1ccc(S(=O)(=O)N(Cc2cc(F)cc(F)c2)c2ncc(C(F)(F)F)cc2Cl)cc1` [Example 42, 4-(N-(3-Chloro-5-(trifluoromethyl)pyridin-2-yl)-N-(3,5-difluorobenzyl)sulfamoyl)benzoic acid], the half-maximal inhibitory concentration (IC50) is less than 1000 nM.

Turning to `O=C(O)c1ccc(S(=O)(=O)N(Cc2ccccc2)c2ncc(-c3ccsc3)cc2Cl)cc1` [Example 184, 4-(N-Benzyl-N-(3-chloro-5-(thiophen-3-yl)pyridin-2-yl)sulfamoyl)benzoic acid], the IC50 was less than 1000 nM.

Compound `Cc1ccc(CN(c2ncc(Cl)cc2Cl)S(=O)(=O)c2ccc(C(=O)O)cc2)cc1C(F)(F)F` [Example 68, 4-(N-(3,5-dichloropyridin-2-yl)-N-(4-methyl-3-(trifluoromethyl)benzyl)sulfamoyl)benzoic acid] returned an IC50 of less than 1000 nM.

With `O=C(O)c1ccc(S(=O)(=O)N(Cc2ccc(C3CC3)cc2)c2ncc(C(F)(F)F)cc2Cl)cc1` [Example 150, 4-(N-(3-Chloro-5-(trifluoromethyl)pyridin-2-yl)-N-(4-cyclopropylbenzyl)sulfamoyl)benzoic acid], the IC50 was less than 1000 nM.

For the compound `CN(C)S(=O)(=O)NCc1ccc(S(=O)(=O)N(Cc2ccccc2)c2ncc(C(F)(F)F)cc2Cl)cc1` [Example 178, N-Benzyl-N-(3-chloro-5-(trifluoromethyl)pyridin-2-yl)-4-(((N,N-dimethylsulfamoyl)amino)methyl)benzenesulfonamide], the IC50 is less than 1000 nM.

`Cc1cccc(N(C(C)c2ccccc2F)S(=O)(=O)c2ccccc2C)c1` (centres unmarked) [Example 100, N-(1-(2-Fluorophenyl)ethyl)-2-methyl-N-tolyl benzenesulfonamide] gave an IC50 of 1000 to 10000 nM.

For the compound `CC(=O)Nc1ccc(S(=O)(=O)N(Cc2ccccc2)c2ccccn2)cc1` [Example 107, N-(4-(N-Benzyl-N-(pyridin-2-yl)sulfamoyl)phenyl)acetamide], the IC50 is 1000 to 10000 nM.

In the case of `COc1ccc(N(C(C)c2ccc(Cl)cc2)S(=O)(=O)c2ccccc2)cc1` (centres unmarked) [Example 87, N-(1-(4-Chlorophenyl)ethyl)-N-(4-methoxyphenyl) benzenesulfonamide], the IC50 lay in the range of 1000 to 10000 nM.

`O=C(O)c1ccc(S(=O)(=O)N(Cc2ccccc2)c2ncc(C(F)(F)F)cc2Cl)cc1F` [Example 191, 4-(N-Benzyl-N-(3-chloro-5-(trifluoromethyl)pyridin-2-yl)sulfamoyl)-2-fluorobenzoic acid] returned an IC50 of less than 1000 nM.

In turn, `CN(C)C(=O)NCc1ccc(S(=O)(=O)N(Cc2ccccc2)c2ncc(C(F)(F)F)cc2Cl)cc1` [Example 179, N-Benzyl-N-(3-chloro-5-(trifluoromethyl)pyridin-2-yl)-4-((3,3-dimethylureido)methyl)benzene sulfonamide] returned a concentration for half-maximal inhibition (IC50) of less than 1000 nM.

Take `O=S(=O)(c1ccc(O)nc1)N(Cc1ccccc1)c1ncc(C(F)(F)F)cc1Cl` [Example 144, N-Benzyl-N-(3-chloro-5-(trifluoromethyl)pyridin-2-yl)-6-hydroxypyridine-3-sulfonamide]: the IC50 was less than 1000 nM.

In the case of `COc1ccccc1-c1cnc(N(Cc2ccccc2)S(=O)(=O)c2ccc(C(=O)O)cc2)c(Cl)c1` [Example 185, 4-(N-Benzyl-N-(3-chloro-5-(2-methoxyphenyl)pyridin-2-yl)sulfamoyl)benzoic acid], the IC50 was less than 1000 nM.

In turn, `O=C(O)c1cccc(S(=O)(=O)N(Cc2ccccc2)c2ccccc2)c1` [Example 116, 3-(N-Benzyl-N-phenylsulfamoyl)benozic acid] returned an IC50 of 10000 to 30000 nM.

Compound `CN(C)C(=O)c1ccc(S(=O)(=O)N(Cc2ccccc2)c2ncc(C(F)(F)F)cc2Cl)cc1` [Example 12, 4-(Benzyl(3-chloro-5-(trifluoromethyl)pyridin-2-yl)sulfamoyl)-N,N-dimethylbenzamide] displayed an IC50 of less than 1000 nM.

`COc1ccc(N(C(C)c2ccccc2OC)S(=O)(=O)c2ccc(C)cc2)cc1` (centres unmarked) [Example 89, N-(4-Methoxyphenyl)-N-(1-(2-methoxyphenyl)ethyl)-4-methylbenzene-sulfonamide] showed an IC50 of 1000 to 10000 nM.

Turning to `O=C(O)c1ccc(S(=O)(=O)N(Cc2ccc(Cl)c(F)c2)c2ncc(C(F)(F)F)cc2Cl)cc1` [Example 65, 4-(N-(4-Chloro-3-fluorobenzyl)-N-(3-chloro-5-(trifluoromethyl)pyridin-2-yl)sulfamoyl)benzoic acid], the concentration for half-maximal inhibition (IC50) was less than 1000 nM.

In turn, `O=C(O)c1ccc(S(=O)(=O)N(Cc2ccccc2)c2ncc(Br)cc2Cl)cc1` [Example 180, 4-(N-Benzyl-N-(5-bromo-3-chloropyridin-2-yl)sulfamoyl)benzoic acid] returned an IC50 of less than 1000 nM.

As to `O=C(O)c1ccc(S(=O)(=O)N(Cc2ccccc2)c2ncc(C(F)(F)F)cc2Br)cc1` [Example 151, 4-(N-Benzyl-N-(3-bromo-5-(trifluoromethyl)pyridin-2-yl)sulfamoyl)benzoic acid], the IC50 is less than 1000 nM.

As for `COc1ccccc1N(Cc1ccccc1)S(=O)(=O)c1cccc(C(=O)O)c1` [Example 114, 3-(N-Benzyl-N-(2-methoxyphenyl)sulfamoyl) benzoic acid], the IC50 is 10000 to 30000 nM.

Compound `COc1ccc(N(C(C)c2ccc(C)cc2)S(=O)(=O)c2cc(Cl)ccc2F)cc1` (centres unmarked) [Example 134, 5-Chloro-2-fluoro-N-(4-methoxyphenyl)-N-(1-p-tolylethyl)benezene-sulfonamide] returned a concentration for half-maximal inhibition (IC50) of 1000 to 10000 nM.

In turn, `O=C(O)c1ccc(S(=O)(=O)N(Cc2ccc(Cl)c(F)c2)c2ncc(Cl)cc2Cl)cc1` [Example 62, 4-(N-(4-Chloro-3-fluorobenzyl)-N-(3,5-dichloropyridin-2-yl)sulfamoyl)benzoic acid] showed an IC50 of less than 1000 nM.

For `O=C(CN(c1cccc(C(F)(F)F)c1)S(=O)(=O)c1ccccc1)NCc1ccccc1` [Example 7, N-Benzyl-2-(N-(3-(trifluoromethyl)phenyl)benzenesulfonamido)acetamide], the IC50 was in the range of 10000 to 30000 nM.

In the case of `O=C(O)c1ccc(S(=O)(=O)N(Cc2ccccc2)c2cccc(C(F)(F)F)n2)cc1` [Example 22, 4-(N-Benzyl-N-(6-(trifluoromethyl)pyridin-2-yl)sulfamoyl)benzoic acid], the IC50 lay in the range of 1000 to 10000 nM.

Consider `O=C(O)c1ccc(Cl)c(S(=O)(=O)N(Cc2ccccc2)c2ccccc2)c1` [Example 126, 3-(N-Benzyl-N-phenylsulfamoyl)-4-chlorobenzoic acid], for which the IC50 lay in the range of 10000 to 30000 nM.
